The subject of one assay is MCF-7. The assay is described as follows: In vitro anti-proliferative activity, MTT assay. Format: cell-based. The settings on record: Homo sapiens, MCF7, 48 h, read-out: In vitro IC50 (nM) Mean ± SD MCF-7.
Another assay concerns the target CDK2/cyclin A2 (Homo sapiens, UniProt P24941). Briefly: CDK2/cyclin A2 Kinase-Glo Plus luminescence kinase assay. For orientation: Kinase-Glo reads ATP consumption through a luciferase reaction.

Take `Cc1ccc(NCC(=O)n2ncc3c(=N)n(N)cnc32)cc1` [Compound 4, 1-(5-Amino-4-imino-4,5-dihydro-1H-pyrazolo[3,4-d]pyrimidin-1-yl)-2-(p-tolylamino)ethan-1-one]: the 50% inhibitory concentration (IC50) (as a rule, the concentration at which inhibition is half-maximal) with MCF-7 amounted to 79 ± 1.4 nM.

Take `Cc1ccc(NCC(=O)n2ncc3c(=N)n(N[C@@H]4O[C@H](CO)[C@@H](O)[C@H](O)[C@H]4O)cnc32)cc1` [Compound 5, 1-(4-Imino-5-((β-D-glucopyranosyl)amino)-4,5-dihydro-1H-pyrazolo[3,4-d]pyrimidin-1-yl)-2-(p-tolylamino)ethan-1-one]: the results for the IC50 with MCF-7 and at CDK2/cyclin A2 were 88 ± 0.99 nM and 1020 ± 57 nM, respectively.

In the case of `Cc1ccc(NCC(=O)n2ncc3c(=N)n(N[C@@H]4OC[C@@H](O)[C@H](O)[C@H]4O)cnc32)cc1` [Compound 6, 1-(4-Imino-5-((β-D-xylopyranosyl)amino)-4,5-dihydro-1H-pyrazolo[3,4-d]pyrimidin-1-yl)-2-(p-tolylamino)ethan-1-one], the IC50 in the assay with MCF-7 was 552 ± 23 nM.

On to `Cc1ccc(NCC(=O)n2ncc3c2ncn2[nH]c(=S)nc32)cc1` [Compound 7, 1-(2-Thioxo-2,3-dihydro-7H-pyrazolo[4,3-e][1,2,4]triazolo[1,5-c]pyrimidin-7-yl)-2-(p-tolylamino)ethan-1-one], for which the IC50 with MCF-7 turned out to be 951 ± 33 nM.

For the compound `Cc1ccc(NCC(=O)n2ncc3c2ncn2nc(SCC#N)nc32)cc1` [Compound 8, 2-((7-(p-Tolylglycyl)-7H-pyrazolo[4,3-e][1,2,4]triazolo[1,5-c]pyrimidin-2-yl)thio)acetonitrile], the half-inhibitory concentration (IC50) in the assay with MCF-7 is 53 ± 2.7 nM; on CDK2/cyclin A2, 589 ± 33 nM.

As for `COC(CSc1nc2c3cnn(C(=O)CNc4ccc(C)cc4)c3ncn2n1)OC` [Compound 9, 1-(2-((2,2-Dimethoxyethyl)thio)-7H-pyrazolo[4,3-e][1,2,4]triazolo[1,5-c]pyrimidin-7-yl)-2-(p-tolylamino)ethan-1-one], the 50% inhibitory concentration (IC50) with MCF-7 worked out at 95 ± 4 nM.

On to `Cc1ccc(NCC(=O)n2ncc3c2ncn2nc(SCC(O)CO)nc32)cc1` (stereo not shown) [Compound 10, 1-{2-[(2,3-Dihydroxypropyl)thio]-7H-pyrazolo[4,3-e][1,2,4]triazolo[1,5-c]pyrimidin-7-yl}-2-(p-tolylamino)ethan-1-one], for which the half-inhibitory concentration (IC50) with MCF-7 is 53 ± 2.1 nM; on CDK2/cyclin A2, 336 ± 19 nM.

For the compound `CC(=O)OCC(CSc1nc2c3cnn(C(=O)CNc4ccc(C)cc4)c3ncn2n1)OC(C)=O` (stereo not shown) [Compound 11, 3-((7-(p-Tolylglycyl)-7H-pyrazolo[4,3-e][1,2,4]triazolo[1,5-c]pyrimidin-2-yl)thio)propane-1,2-diyl diacetate], the IC50 in the assay with MCF-7 stood at 91 ± 4.2 nM; at CDK2/cyclin A2, 3650 ± 203 nM.

For the compound `Cc1ccc(NCC(=O)n2ncc3c2ncn2nc(SCCO)nc32)cc1` [Compound 12, 1-(2-((2-Hydroxyethyl)thio)-7H-pyrazolo[4,3-e][1,2,4]triazolo[1,5-c]pyrimidin-7-yl)-2-(p-tolylamino)ethan-1-one], in the assay with MCF-7, the IC50 worked out at 97 ± 1.7 nM.

Turning to `CC(=O)OCCSc1nc2c3cnn(C(=O)CNc4ccc(C)cc4)c3ncn2n1` [Compound 13, 2-((7-(p-Tolylglycyl)-7H-pyrazolo[4,3-e][1,2,4]triazolo[1,5-c]pyrimidin-2-yl)thio)ethyl acetate], the IC50 with MCF-7 came out at 59 ± 0.94 nM; at CDK2/cyclin A2, 81 ± 4 nM.

For `CNC(=O)c1cc(Oc2ccc(NC(=O)Nc3ccc(Cl)c(C(F)(F)F)c3)cc2)ccn1` [Sorafenib, reference compound], in the assay on MCF-7, the IC50 amounted to 144 ± 0.47 nM.

The values are drawn from paper PMC9112407 (RSC Advances, 2022).
